The values below come from patent US20150315188A1, “COMPOUNDS AND METHODS FOR TREATMENT OF HYPERTENSION” (MEDIVATION TECHNOLOGIES, INC., priority 2012, published 2015).

In experiment [1] the target is T1, Human adrenergic α1B receptor (Homo sapiens, UniProt P35368).
T1 sequence (P35368 1-520): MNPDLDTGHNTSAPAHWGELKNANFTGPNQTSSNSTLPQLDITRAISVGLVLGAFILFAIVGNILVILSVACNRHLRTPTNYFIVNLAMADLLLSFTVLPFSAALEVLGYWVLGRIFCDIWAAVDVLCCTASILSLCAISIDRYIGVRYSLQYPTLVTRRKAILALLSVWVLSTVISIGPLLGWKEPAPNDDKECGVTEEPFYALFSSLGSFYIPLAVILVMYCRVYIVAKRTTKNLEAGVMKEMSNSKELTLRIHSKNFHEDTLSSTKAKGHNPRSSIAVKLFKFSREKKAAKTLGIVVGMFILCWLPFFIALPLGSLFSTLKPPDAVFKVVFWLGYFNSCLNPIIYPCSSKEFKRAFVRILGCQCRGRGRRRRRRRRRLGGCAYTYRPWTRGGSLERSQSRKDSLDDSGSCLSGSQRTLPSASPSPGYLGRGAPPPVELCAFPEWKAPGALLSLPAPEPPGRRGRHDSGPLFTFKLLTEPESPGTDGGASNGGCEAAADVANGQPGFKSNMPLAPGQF
In words: β-Arrestin GPCR functional assay, adrenergic α1B (Protocol B). In kind it is cell-based. The settings on record: for IC50: β-arrestin, antagonist vs nor-epinephrine EC80; for Percentage inhibition, Adrenergic α1B: nor-epinephrine at EC80 (50 nM). As to the method: To evaluate the activity of compounds in β-Arrestin GPCR functional assays, recombinant CHO cell line (DiscoveRX), over expressed with human adrenergic α1B receptor were used. The experiment was done with a kit of DiscoveRX as per recommended protocol of the supplier. Cells were harvested from culture flask using cell dissociation solution (CDS) and plated at a density of 12,000 cells/well in CP reagent (supplied with the kit) in a half area 96-well white polystyrene plate. After 24 h incubation at 37° C., compounds at various concentrations in 1% (final) DMSO were charged to the cells for 30 min at 37° C. Active nor-epinephrine (-NE) at its EC80 concentrations (50 nM) were then added to the cells and incubated for another 90 min at 37° C. Detection mix was prepared by mixing Path Hunter cell assay buffer, Emerald II solution and Galactone star solution in a ratio of 19:5:1 and incubated with the cells for 60 min at RT in the dark. The reading was taken in Envision at luminescence mode. Biochemical assay results are presented as the percent Inhibition in Table B2a, or IC50 values in Table B2b.

The target in experiment [2] is T2, Human adrenergic α2B receptor (Homo sapiens, UniProt P18089).
T2 sequence (P18089 1-450): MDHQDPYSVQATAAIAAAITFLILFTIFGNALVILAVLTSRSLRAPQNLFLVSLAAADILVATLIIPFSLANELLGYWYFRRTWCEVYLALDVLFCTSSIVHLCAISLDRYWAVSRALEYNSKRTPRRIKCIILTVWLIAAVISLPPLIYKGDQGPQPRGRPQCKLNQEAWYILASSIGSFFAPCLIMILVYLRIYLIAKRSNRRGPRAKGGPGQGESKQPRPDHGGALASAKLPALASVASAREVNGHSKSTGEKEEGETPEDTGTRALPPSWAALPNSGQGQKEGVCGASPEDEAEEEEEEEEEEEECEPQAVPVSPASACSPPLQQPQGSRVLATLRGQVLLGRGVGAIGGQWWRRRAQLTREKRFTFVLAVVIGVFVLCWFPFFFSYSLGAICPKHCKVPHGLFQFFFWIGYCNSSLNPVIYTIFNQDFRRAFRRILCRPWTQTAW
In words: β-Arrestin GPCR functional assay, adrenergic α2B (Protocol B). The settings on record: for IC50: β-arrestin, antagonist vs nor-epinephrine EC80, read-out: IC50 Adrenergic α2B; for Percentage inhibition, Adrenergic α2B: nor-epinephrine at EC80 (50 nM). The class given is cell-based. The procedure, abridged:
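CHO cells overexpressing human α2B (PathHunter β-arrestin), 12,000 per well, 24 h at 37° C; compounds in 1% DMSO 30 min, then 50 nM norepinephrine (EC80) 90 min at 37° C.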

The target of experiment [3] is T2, Human adrenergic α2B receptor. In words: Radioligand binding, adrenergic α2B (Protocol Group B). Also noted: purchased Milipore (Millipore). The settings on record: for inhibition at 0.01 µM / Percentage inhibition of ligand binding, Adrenergic α2B (10 nM): 10 nM compound; for inhibition at 0.01 µM: read-out: Percentage inhibition of ligand binding, Adrenergic α2B (10 nM); for inhibition at 0.03 µM / Percentage inhibition of ligand binding, Adrenergic α2B (30 nM): 30 nM compound; for inhibition at 0.03 µM: read-out: Percentage inhibition of ligand binding, Adrenergic α2B (30 nM); for inhibition at 0.1 µM: read-out: Percentage inhibition of ligand binding, Adrenergic α2B (0.1 μM); for Ki: estimated Ki, read-out: Ki α2B; for Percentage inhibition of ligand binding, Adrenergic α2B (10 nM): 0.01 µM; for Percentage inhibition of ligand binding, Adrenergic α2B (30 nM): 0.03 µM. The essentials: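 Compounds at various concentrations in 1% DMSO were tested on recombinant membranes in Tris-HCl pH 7.4 buffer containing MgCl2, CaCl2 and 0.2% BSA.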

In experiment [4] the target is T1, Human adrenergic α1B receptor. In words: Radioligand binding, adrenergic α1B (Protocol Group B). On the set-up: purchased Milipore (Millipore). The settings on record: Protocol Group B; for Percentage inhibition of ligand binding, Adrenergic α1B (0.1 μM) / inhibition at 0.1 µM: 0.1 μM compound; for Percentage inhibition of ligand binding, Adrenergic α1B (0.3 μM) / inhibition at 0.3 µM: 0.3 μM compound; for Ki: estimated Ki; for inhibition at 0.1 µM: read-out: Percentage inhibition of ligand binding, Adrenergic α1B (0.1 μM); for inhibition at 0.3 µM: read-out: Percentage inhibition of ligand binding, Adrenergic α1B (0.3 μM). The essentials: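 Values are percent inhibition of specific [3H]prazosin (0.3 nM) binding or estimated Ki, from filtration counting. Human α1B recombinant membranes, Tris-HCl pH 7.4 buffer with MgCl2 and EDTA, 60 min at 25 °C, 1% DMSO vehicle; 10 μM prazosin defined nonspecific binding.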

Setting [5] is: 0.1 μM compound, Protocol Group B.

SMILES strings stand for the structures.

As for `CCOC(Cn1c2c(c3cc(C)ccc31)CN(C)CC2)c1ccncc1` (single isomer, unassigned) [43a], it took 670 nM to reach half-maximal inhibition in experiment [1] (IC50). Besides, the half-inhibitory concentration (IC50) (as a rule, the concentration that inhibits the measured activity by half) in experiment [2] amounted to 119 nM. Moreover, in experiment [3] (Protocol Group B), the inhibition (commonly the drop in the measured response relative to a control, in per cent) at 0.01 µM was 64%; the inhibition at 0.03 µM is 85%; the Ki – broadly, a dissociation constant, usually derived from enzyme kinetics or from competition with a known ligand – was 2.8 nM. For the same molecule, the inhibition at 0.1 µM in experiment [3] (setting [5]) stood at 96%. Besides, in experiment [4], the “Percentage inhibition of ligand binding, Adrenergic α1B (0.1 μM)” value is 29%; the “Percentage inhibition of ligand binding, Adrenergic α1B (0.3 μM)” value (from here on “Percentage inhibition … (0.3 μM)”) is listed as 55%; the Ki was 111 nM.

In the case of `Cc1ccc2c(c1)c1c(n2CC(OCC2CCC2)c2ccncc2)CCN2CCCC12` (single isomer, unassigned) [138b], the IC50 in experiment [1] stood at 926 nM. Besides, in experiment [2], the IC50 was 20.6 nM. In addition, in experiment [3] (Protocol Group B), the “Percentage inhibition of ligand binding, Adrenergic α2B (10 nM)” value stood at 82%; the “Percentage inhibition of ligand binding, Adrenergic α2B (30 nM)” value was 81%; the Ki is 1.45 nM. In experiment [4], the “Percentage inhibition of ligand binding, Adrenergic α1B (0.1 μM)” value stood at 57%; the “Percentage inhibition … (0.3 μM)” value amounted to 80%; the Ki is 14 nM.

Consider `Cc1ccc2c(c1)c1c(n2C[C@@H](OC2CCCC2)c2ccncc2)CCN2CCC[C@H]12` [compound 82, (11cR)-7-[(25)-2-(cyclopentoxy)-2-(4-pyridyl)ethyl]-10-methyl-1,2,3,5,6,11c-hexahydroindolizino[7,8-b]indole], for which, in experiment [1], the 50% inhibitory concentration (IC50) was determined as 382 nM. The concentration for half-maximal inhibition (IC50) in experiment [2] was determined as 25.4 nM. In addition, in experiment [3] (Protocol Group B), the inhibition at 0.01 µM was 98%, the inhibition at 0.03 µM is 99% and the Ki was 1.59 nM. In experiment [4], the inhibition at 0.1 µM worked out at 56%, the inhibition at 0.3 µM came to 81% and the Ki is 32.7 nM.

Turning to `CC(O)(Cn1c2c(c3cc(Cl)cc(F)c31)C1CCCN1CC2)c1ccncc1` (single isomer, unassigned) [52a], half-maximal inhibition in experiment [1] (IC50) required 149 nM. Besides, the IC50 in experiment [2] was 16 nM. In addition, in experiment [3] (Protocol Group B), the inhibition at 0.01 µM is 99%, the inhibition at 0.03 µM was 100% and the Ki was 0.84 nM. Further, in experiment [3] (setting [5]), the inhibition at 0.1 µM was 101%. Further, in experiment [4], the “Percentage inhibition of ligand binding, Adrenergic α1B (0.1 μM)” value amounted to 75%; the inhibition at 0.3 µM stood at 90%; the Ki was 11.4 nM.

For `CC(O)(Cn1c2c(c3cc(F)ccc31)C1CCCN1CC2)c1ccncc1` (single isomer, unassigned) [31a], half-maximal inhibition in experiment [1] (IC50) required 982 nM. For the same molecule, the IC50 in experiment [2] is 87 nM. In experiment [3] (Protocol Group B), the inhibition at 0.01 µM was 72%, the inhibition at 0.03 µM was determined as 90% and the Ki was 2.2 nM. For the same molecule, the inhibition at 0.1 µM in experiment [3] (setting [5]) is 96%. For the same molecule, in experiment [4], the inhibition at 0.1 µM came to 24%, the inhibition at 0.3 µM came to 47% and the Ki is 145 nM.

As to `Cc1ccc2c(c1)c1c(n2CC(O)c2ccncc2F)CCN2CCCC12` (single isomer, unassigned) [14b], the “Percentage inhibition, Adrenergic α1B” value came to 76% in experiment [1] (0.1 μM compound) and 86% in experiment [1] (0.3 μM compound). The IC50 stood at 25 nM in experiment [1] and 14 nM in experiment [2]. Moreover, the “Percentage inhibition, Adrenergic α2B” value in experiment [2] (10 nM compound) turned out to be 11%; in experiment [2] (30 nM compound) it was 93%; in experiment [2] (0.1 μM compound) it was 97%. Moreover, the “Percentage inhibition of ligand binding, Adrenergic α2B, 0.1 nM” value in experiment [3] (0.1 nM compound, concentration series, 0.0001 µM) is recorded as 18%. In addition, the “Percentage inhibition of ligand binding, Adrenergic α2B (10 nM)” value in experiment [3] (Protocol Group B) amounted to 98%. Further, the “Percentage inhibition of ligand binding, Adrenergic α2B (30 nM)” value in experiment [3] (Protocol Group B) is 100%. Also, the “Percentage inhibition of ligand binding, Adrenergic α2B (0.1 μM)” value in experiment [3] (0.1 μM compound, Protocol Group B, 0.1 µM) is 96%. Further, the Ki is 1.1 nM in experiment [3] (Protocol Group B) and 4.5 nM in experiment [4]. Further, in experiment [4], the “Percentage inhibition of ligand binding, Adrenergic α1B (0.1 μM)” value came to 85%. Moreover, the “Percentage inhibition … (0.3 μM)” value in experiment [4] is 95%.
